Earlier results as cited in US20150173349A1, “Agroformulation comprising copolymer of an amide, polyalkylene glycol (meth)acrylate, and alkyl (meth)acrylate” (BASF SE, priority 2012, published 2015).
Values after ≈ are worked out from the molar mass of the structure shown.

Conditions: 20° C.

Cn1cc(C(=O)Nc2ccccc2-c2cc(F)c(F)c(F)c2)c(C(F)F)n1 [fluxapyroxad]
solubility in water: 3.88 µg/mL (≈ 10.2 µM)
